The source of these data is ChEMBL document CHEMBL6114958, “Progress in the study of anti-Alzheimer's disease activity of pyrimidine-containing bioactive molecules” (Eur J Med Chem, 2025).

Experiment [1] is described as follows: Inhibition of Calcium channel (unknown origin). Details: species or system Homo sapiens.
Experiment [2] addresses T1, Acetylcholinesterase (Homo sapiens, UniProt P22303). The experiment is described as follows: Inhibition of AChE (unknown origin).
Experiment [3] has as its target T2, Cholinesterase (Homo sapiens, UniProt P06276). Put plainly: Inhibition of BChE (unknown origin).
Experiment [4] deals with Cholinesterase (Equus caballus, UniProt P81908). Put plainly: Inhibition of equine serum BChE using butyrylthiocholine iodide measured after 25 mins by Ellman's spectrophotometric method. Background: In Ellman's method for cholinesterases, released thiocholine reacts with DTNB.
Experiment [5] concerns the target High affinity cGMP-specific 3',5'-cyclic phosphodiesterase 9A (Homo sapiens, UniProt O76083). The experiment is described as follows: Inhibition of PDE9 (unknown origin).
The next experiment addresses Histone deacetylase 1 (Homo sapiens, UniProt Q13547). The experiment is described as follows: Inhibition of HDAC1 (unknown origin).
The target of a further experiment is Histone deacetylase 2 (Homo sapiens, UniProt Q92769). The experiment is described as follows: Inhibition of HDAC2 (unknown origin).
For experiment [6], the target named is T3, Protein deacetylase HDAC6 (Homo sapiens, UniProt Q9UBN7).
T3 sequence (Q9UBN7 whole entry): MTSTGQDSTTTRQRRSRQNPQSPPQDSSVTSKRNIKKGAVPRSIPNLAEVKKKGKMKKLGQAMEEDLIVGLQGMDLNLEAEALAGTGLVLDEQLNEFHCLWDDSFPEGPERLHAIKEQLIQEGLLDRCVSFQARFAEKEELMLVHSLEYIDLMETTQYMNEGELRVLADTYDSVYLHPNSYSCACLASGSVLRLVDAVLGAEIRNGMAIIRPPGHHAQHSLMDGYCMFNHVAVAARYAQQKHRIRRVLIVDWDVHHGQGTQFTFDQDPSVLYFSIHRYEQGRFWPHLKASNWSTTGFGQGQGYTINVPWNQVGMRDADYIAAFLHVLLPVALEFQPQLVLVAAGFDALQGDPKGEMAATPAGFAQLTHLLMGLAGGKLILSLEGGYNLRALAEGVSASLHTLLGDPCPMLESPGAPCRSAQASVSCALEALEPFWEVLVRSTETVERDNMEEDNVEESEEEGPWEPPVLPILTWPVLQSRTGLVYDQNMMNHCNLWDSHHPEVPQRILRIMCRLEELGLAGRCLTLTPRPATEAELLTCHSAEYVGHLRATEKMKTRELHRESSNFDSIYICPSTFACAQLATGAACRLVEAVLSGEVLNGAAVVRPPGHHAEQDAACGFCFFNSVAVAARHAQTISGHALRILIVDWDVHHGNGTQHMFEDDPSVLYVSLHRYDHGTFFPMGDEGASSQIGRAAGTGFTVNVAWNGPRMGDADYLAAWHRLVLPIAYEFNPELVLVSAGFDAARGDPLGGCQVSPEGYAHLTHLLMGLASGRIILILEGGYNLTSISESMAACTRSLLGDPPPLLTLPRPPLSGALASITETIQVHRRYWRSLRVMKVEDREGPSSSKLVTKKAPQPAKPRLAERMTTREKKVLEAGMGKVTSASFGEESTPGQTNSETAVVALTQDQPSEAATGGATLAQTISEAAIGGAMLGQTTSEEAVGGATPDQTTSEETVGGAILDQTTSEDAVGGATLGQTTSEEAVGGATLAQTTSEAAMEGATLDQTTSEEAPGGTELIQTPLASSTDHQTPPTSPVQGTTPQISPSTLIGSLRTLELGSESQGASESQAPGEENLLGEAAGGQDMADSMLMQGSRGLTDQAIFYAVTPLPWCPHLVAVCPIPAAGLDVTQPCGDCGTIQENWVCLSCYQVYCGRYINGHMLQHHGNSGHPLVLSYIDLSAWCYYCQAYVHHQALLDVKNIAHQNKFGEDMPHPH
The experiment is described as follows: Inhibition of HDAC6 (unknown origin).

Experiment [7] concerns the target T2, Cholinesterase. The experiment is described as follows: Inhibition of BChE (unknown origin) using butyrylthiocholine iodide as substrate by Ellman's method.
Experiment [8] concerns the target T1, Acetylcholinesterase. Put plainly: Inhibition of recombinant human AChE using acetylthiocholine iodide as substrate by Ellman's method.
The target in experiment [9] is Acetylcholinesterase (Electrophorus electricus) (UniProt O42275). Put plainly: Inhibition of electric eel AChE using acetylthiocholine as substrate at 9 uM by Ellman's spectrophotometric method relative to control.
The target in experiment [10] is T1, Acetylcholinesterase. The experiment is described as follows: Inhibition of human AChE by Ellman's method.
The target in experiment [11] is T4, Amine oxidase [flavin-containing] A (Homo sapiens, UniProt P21397).
T4 sequence (P21397 whole entry): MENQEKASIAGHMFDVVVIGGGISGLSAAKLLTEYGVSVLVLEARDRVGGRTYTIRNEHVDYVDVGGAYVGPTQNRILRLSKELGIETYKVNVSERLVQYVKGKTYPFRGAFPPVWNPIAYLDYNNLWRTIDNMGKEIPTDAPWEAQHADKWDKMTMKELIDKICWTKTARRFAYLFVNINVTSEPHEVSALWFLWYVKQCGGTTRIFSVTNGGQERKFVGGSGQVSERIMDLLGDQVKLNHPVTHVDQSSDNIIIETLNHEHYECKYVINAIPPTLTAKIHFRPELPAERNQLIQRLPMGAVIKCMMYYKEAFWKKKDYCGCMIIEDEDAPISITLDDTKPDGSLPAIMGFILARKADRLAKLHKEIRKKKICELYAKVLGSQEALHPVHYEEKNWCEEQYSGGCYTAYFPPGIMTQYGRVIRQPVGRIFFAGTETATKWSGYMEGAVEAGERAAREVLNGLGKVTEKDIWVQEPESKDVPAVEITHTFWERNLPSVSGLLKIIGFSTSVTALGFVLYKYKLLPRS
The experiment is described as follows: Inhibition of recombinant human MAO-A assessed as fluorescence measured after 30 mins by Amplex Red reagent assay.

Experiment [12] addresses T5, Amine oxidase [flavin-containing] B (Homo sapiens, UniProt P27338).
T5 sequence (P27338 whole entry): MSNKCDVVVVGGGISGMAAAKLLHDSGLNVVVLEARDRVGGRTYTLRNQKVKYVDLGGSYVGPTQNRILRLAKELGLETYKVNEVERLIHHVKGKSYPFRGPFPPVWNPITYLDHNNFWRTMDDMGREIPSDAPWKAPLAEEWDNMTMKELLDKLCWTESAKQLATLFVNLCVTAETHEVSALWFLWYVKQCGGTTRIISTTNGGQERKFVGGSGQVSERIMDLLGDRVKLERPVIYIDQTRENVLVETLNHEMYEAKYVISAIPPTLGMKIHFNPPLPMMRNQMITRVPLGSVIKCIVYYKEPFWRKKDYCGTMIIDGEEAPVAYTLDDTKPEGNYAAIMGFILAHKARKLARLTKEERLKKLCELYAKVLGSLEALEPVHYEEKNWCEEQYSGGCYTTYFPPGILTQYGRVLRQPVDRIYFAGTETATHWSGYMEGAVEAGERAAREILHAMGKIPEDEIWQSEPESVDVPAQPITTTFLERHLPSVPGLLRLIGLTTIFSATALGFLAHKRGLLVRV
Put plainly: Inhibition of recombinant human MAO-B assessed as fluorescence measured after 30 mins by Amplex Red reagent assay.

The target of experiment [13] is T1, Acetylcholinesterase. Put plainly: Inhibition of Acetylcholinesterase (unknown origin) activity measured after 15 mins by Amplex Red reagent assay.
Experiment [14] deals with T2, Cholinesterase. The experiment is described as follows: Inhibition of human BChE by Ellman's method.
The next experiment deals with Beta-secretase 1 (Homo sapiens, UniProt P56817). The experiment is described as follows: Inhibition of BACE1 (unknown origin).
Experiment [15] deals with T1, Acetylcholinesterase. The experiment is described as follows: Inhibition of AChE (unknown origin) using acetylthiocholine iodide as substrate by Ellman's method.
In experiment [16] the target is T4, Amine oxidase [flavin-containing] A. Put plainly: Inhibition of human MAO-A.
The target in experiment [17] is T5, Amine oxidase [flavin-containing] B. The experiment is described as follows: Inhibition of human MAO-B.
Experiment [18] deals with T6, Acetylcholinesterase (Electrophorus electricus, UniProt O42275). The experiment is described as follows: Inhibition of electric eel AChE.
Experiment [19] in a line: Inhibition of Cysteine asparaginase (unknown origin). Also on record: species or system Homo sapiens.
Experiment [20] has as its target T6, Acetylcholinesterase. Put plainly: Inhibition of electric eel AChE using ACTI as substrate measured after 30 mins by spectrometric analysis.

By IC50 is commonly meant the point on the concentration scale where inhibition reaches its midpoint. The term inhibition denotes how much of the control response was suppressed. Higher therefore signals a response far below the control.

T6 sequence (O42275 whole entry): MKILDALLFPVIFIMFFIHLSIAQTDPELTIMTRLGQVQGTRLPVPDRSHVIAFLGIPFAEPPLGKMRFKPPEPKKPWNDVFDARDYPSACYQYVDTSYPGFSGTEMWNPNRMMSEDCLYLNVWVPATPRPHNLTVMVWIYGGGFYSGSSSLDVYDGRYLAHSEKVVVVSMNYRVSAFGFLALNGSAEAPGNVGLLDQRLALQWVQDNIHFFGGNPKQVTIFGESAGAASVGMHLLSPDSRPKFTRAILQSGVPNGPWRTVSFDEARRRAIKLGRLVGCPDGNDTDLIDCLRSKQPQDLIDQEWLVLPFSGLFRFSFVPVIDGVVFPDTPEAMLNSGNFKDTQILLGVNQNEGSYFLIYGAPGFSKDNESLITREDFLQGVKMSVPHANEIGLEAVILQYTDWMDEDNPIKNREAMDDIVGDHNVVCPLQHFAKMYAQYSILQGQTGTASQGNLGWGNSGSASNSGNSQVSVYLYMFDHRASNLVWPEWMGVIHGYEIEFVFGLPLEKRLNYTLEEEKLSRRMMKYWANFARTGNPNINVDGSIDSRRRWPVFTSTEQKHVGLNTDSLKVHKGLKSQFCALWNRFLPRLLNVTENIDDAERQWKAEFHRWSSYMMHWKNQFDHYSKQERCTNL
T1 sequence (P22303 whole entry): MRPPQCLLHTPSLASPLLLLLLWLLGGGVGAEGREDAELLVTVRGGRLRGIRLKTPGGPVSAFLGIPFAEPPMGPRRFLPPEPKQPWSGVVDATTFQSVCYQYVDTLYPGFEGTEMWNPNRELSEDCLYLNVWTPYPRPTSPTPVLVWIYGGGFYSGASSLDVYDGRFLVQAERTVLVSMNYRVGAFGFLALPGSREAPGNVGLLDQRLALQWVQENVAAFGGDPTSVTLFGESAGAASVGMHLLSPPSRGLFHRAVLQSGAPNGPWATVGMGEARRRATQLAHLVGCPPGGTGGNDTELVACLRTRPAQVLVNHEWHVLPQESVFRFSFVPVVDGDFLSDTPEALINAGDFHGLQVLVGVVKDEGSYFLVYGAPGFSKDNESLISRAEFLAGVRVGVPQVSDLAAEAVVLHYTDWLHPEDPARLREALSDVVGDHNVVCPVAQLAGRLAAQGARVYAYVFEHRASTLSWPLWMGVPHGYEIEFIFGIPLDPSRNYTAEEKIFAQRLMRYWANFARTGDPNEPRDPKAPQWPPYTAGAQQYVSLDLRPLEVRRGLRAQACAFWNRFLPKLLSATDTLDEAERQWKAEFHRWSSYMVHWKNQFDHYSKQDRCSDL
Sequence of Histone deacetylase 2 (Q92769 whole entry): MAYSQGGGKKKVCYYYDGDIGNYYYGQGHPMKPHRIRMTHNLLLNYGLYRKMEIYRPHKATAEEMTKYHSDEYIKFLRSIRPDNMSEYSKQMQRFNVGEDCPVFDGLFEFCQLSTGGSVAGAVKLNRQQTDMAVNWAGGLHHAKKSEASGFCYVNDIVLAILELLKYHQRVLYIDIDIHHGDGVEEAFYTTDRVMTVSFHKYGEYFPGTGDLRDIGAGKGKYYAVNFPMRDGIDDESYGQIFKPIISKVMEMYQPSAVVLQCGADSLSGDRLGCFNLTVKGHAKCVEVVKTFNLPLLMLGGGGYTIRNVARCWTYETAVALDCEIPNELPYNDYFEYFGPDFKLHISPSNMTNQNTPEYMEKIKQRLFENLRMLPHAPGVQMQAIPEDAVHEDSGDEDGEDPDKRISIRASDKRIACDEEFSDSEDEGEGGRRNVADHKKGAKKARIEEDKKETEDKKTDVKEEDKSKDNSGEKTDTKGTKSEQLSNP
T2 sequence (P06276 whole entry): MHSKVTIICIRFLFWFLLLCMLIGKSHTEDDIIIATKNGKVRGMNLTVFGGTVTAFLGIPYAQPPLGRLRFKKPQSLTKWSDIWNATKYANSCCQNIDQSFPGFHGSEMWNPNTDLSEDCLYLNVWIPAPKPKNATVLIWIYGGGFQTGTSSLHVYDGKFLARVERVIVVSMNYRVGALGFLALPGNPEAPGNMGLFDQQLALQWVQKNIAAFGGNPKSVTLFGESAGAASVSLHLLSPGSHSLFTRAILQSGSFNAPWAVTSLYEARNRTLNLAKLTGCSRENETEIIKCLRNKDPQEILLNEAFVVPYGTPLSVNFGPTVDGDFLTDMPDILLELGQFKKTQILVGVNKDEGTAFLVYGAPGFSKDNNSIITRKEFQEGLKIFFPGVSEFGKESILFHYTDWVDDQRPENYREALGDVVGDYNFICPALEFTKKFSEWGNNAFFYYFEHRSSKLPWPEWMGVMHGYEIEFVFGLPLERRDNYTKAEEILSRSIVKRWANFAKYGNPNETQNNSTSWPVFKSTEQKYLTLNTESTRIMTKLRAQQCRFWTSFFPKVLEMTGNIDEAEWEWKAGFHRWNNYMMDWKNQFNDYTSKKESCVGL
Sequence of Histone deacetylase 1 (Q13547 whole entry): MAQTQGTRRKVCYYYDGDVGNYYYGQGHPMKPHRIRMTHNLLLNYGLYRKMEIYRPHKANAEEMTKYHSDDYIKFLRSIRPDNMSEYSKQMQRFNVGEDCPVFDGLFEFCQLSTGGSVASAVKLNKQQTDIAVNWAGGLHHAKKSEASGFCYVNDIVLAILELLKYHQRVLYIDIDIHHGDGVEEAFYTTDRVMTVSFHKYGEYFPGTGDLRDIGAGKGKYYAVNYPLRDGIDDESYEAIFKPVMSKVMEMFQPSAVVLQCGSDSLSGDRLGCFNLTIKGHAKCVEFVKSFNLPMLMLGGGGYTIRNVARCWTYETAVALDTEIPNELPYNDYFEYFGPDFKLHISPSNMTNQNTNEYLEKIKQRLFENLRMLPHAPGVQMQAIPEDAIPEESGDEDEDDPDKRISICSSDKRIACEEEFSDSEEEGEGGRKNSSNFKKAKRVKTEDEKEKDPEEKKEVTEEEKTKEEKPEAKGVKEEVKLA
Sequence of High affinity cGMP-specific 3',5'-cyclic phosphodiesterase 9A (O76083 whole entry): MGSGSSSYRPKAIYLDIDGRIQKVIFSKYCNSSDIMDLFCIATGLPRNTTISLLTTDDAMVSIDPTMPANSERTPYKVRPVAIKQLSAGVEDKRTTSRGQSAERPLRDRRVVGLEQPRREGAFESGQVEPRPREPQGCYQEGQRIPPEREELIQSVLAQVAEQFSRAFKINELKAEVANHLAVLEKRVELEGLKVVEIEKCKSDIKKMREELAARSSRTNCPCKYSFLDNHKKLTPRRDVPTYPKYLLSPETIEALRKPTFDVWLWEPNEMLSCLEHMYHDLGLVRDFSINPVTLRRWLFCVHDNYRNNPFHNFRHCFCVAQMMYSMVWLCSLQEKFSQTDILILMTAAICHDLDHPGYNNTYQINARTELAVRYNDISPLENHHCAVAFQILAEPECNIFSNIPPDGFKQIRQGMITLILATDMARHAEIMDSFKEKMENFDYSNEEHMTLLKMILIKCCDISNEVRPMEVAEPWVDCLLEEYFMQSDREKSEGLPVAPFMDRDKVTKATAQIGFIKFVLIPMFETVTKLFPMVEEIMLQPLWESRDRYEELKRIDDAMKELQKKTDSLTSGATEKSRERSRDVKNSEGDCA
Sequence of Cholinesterase (Equus caballus, UniProt P81908) (P81908 whole entry): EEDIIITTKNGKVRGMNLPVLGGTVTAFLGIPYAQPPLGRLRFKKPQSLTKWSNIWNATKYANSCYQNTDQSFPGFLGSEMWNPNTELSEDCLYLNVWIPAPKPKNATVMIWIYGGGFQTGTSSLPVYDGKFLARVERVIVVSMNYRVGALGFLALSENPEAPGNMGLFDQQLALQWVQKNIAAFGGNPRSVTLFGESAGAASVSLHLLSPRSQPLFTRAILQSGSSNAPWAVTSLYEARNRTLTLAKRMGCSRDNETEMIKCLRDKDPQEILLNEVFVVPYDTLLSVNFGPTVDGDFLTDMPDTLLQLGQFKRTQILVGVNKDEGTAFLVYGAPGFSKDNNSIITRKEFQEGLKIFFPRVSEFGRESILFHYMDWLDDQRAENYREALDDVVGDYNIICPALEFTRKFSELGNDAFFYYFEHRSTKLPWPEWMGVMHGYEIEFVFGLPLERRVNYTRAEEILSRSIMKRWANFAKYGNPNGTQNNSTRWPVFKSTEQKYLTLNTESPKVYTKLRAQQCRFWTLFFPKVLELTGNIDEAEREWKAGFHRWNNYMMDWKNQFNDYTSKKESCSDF
Sequence of Acetylcholinesterase (Electrophorus electricus) (O42275 24-633 limits assumed): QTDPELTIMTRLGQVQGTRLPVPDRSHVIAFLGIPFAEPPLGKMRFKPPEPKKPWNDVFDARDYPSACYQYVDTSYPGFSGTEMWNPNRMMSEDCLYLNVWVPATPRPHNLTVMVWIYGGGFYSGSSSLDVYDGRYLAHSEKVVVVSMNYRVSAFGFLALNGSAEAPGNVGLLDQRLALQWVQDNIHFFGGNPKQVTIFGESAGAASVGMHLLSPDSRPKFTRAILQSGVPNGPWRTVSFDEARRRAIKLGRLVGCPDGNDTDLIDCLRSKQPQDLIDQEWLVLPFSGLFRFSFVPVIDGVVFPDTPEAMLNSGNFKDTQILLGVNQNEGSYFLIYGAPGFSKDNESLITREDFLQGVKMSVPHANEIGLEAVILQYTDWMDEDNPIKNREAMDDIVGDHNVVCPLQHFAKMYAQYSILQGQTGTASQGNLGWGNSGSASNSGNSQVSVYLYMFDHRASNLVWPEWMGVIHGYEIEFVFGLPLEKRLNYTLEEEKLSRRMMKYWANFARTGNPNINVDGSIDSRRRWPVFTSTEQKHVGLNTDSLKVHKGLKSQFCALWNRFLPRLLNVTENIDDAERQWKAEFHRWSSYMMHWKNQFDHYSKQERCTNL

`CCOC(=O)C1=C(C)N(CCC2CCN(Cc3ccccc3)CC2)C(=O)NC1c1coc2c(Cl)cc(Cl)cc2c1=O` (stereo not drawn): the IC50 in [1] came out at 1400 nM. On to `Cc1cccc(-c2nccc(N3CCOCC3)n2)c1`, for which the results for the IC50 at Acetylcholinesterase [2] and at Cholinesterase [3] were 430 nM and 2500 nM, respectively. `COC(=O)/C1=C/N(C(C)C)CCc2nc(-c3ccccc3)[nH]c(=O)c2C1` gave an IC50 on Cholinesterase [4] of 1300 nM. As to `CC(c1nc2c(cnn2C2CCCC2)c(=O)[nH]1)C1CC(Cc2ccc(C(=O)NO)cc2)C1` (stereo not drawn), the IC50 in experiment [5] was found to be 107 nM; against Histone deacetylase 1 it was 593 nM; against Histone deacetylase 2 it was 3530 nM; in [6], 40 nM.

`N#Cc1c(N)nc(SCCCSc2nc(N)c(C#N)c(-c3ccc(Br)cc3)n2)nc1-c1ccc(Br)cc1` registered an IC50 at Cholinesterase [7] of 12.2 µM. For `CCN(CCCCCn1c(C)cc(=O)n(CCCCCN(CC)Cc2ccccc2C#N)c1=O)Cc1ccccc1C#N`, on Acetylcholinesterase [8], the IC50 came to 7300 nM.

In experiment [9], `c1ccc(CNCCCCCCNc2ncccn2)cc1` came in with an inhibition of 92.9%. The same measure, in the same setting: for `O=C(NCCCCCCNc1ncccn1)c1ccccc1` the value was 2.5%. As for `CCOC(=O)C1=C(C)N=C2SC(c3ccc([N+](=O)[O-])cc3)=NN2C1c1ccc(C=O)cn1` (stereo not drawn), the IC50 against Acetylcholinesterase [2] worked out at 82 nM. For the compound `N#CC1C(N)N2CCCNC2C(C#N)C12C(=O)Nc1ccccc12` (stereo not drawn), the 50% inhibitory concentration (IC50) against Acetylcholinesterase [10] was determined as 4040 nM. Take `C#CCOc1ccc(-c2cc(-c3ccc(OCCN4CCOCC4)cc3)nc(N)n2)cc1`: the half-inhibitory concentration (IC50) in [11] is 0.018 µM; in experiment [12], more than 50000 nM; on Acetylcholinesterase [13], 30.5 µM. For `Cc1ccc(O)c(CNc2c(N)n(C)c(=O)n(C)c2=O)c1`, it took 4.65 nM to reach half-maximal inhibition on Acetylcholinesterase [10] (IC50). For `N#CC1C(N)N2CCCNC2C(C#N)C12C(=O)Nc1ccc(Br)cc12` (stereo not drawn), the IC50 against Cholinesterase [14] came out at 17.5 µM. As for `CN(CCCOc1ccc([N+](=O)[O-])cc1)C(=O)c1cnc(N2CCN(c3ccc(C(=O)N4CCOCC4)cc3[N+](=O)[O-])CC2)nc1`, on Acetylcholinesterase [8], the IC50 was determined as 900 nM. For `C#CCNc1ccc(-c2cc(-c3ccc(OCCN4CCOCC4)cc3)nc(N)n2)cc1`, the IC50 in experiment [11] worked out at 9.94 µM; in experiment [12], 40 nM; against Acetylcholinesterase [13] it was 7.21 µM. As to `CCN(CCCCCn1c(C)cc(=O)n(CCCCCN(CC)Cc2cccc(C(=O)OC)c2)c1=O)Cc1cccc(C(=O)OC)c1`, the IC50 at Acetylcholinesterase [8] turned out to be 290 nM. In the case of `COc1cccc(-c2csc(NC(=O)CSc3nc(N)cc(N)n3)n2)c1`, inhibition against Beta-secretase 1 was half-maximal at 1400 nM (IC50). Regarding `COc1cccc(-c2nc(SCCCSc3nc(N)c(C#N)c(-c4cccc(OC)c4)n3)nc(N)c2C#N)c1`, half-maximal inhibition against Acetylcholinesterase [15] (IC50) required 5.72 µM.

With `C[C@@H]1CN(Cc2ccc(CC(=O)CNO)cc2)C[C@H]1c1nc2c(cnn2C2CCOCC2)c(=O)[nH]1`, the half-inhibitory concentration (IC50) in experiment [5] stood at 8 nM; at Histone deacetylase 1, 138 nM; against Histone deacetylase 2 it was 1250 nM; in [6], 508 nM.

As for `C#CCCCOc1ccc(-c2cc(-c3ccc(OCCN4CCCC4)cc3)nc(-c3ccccc3)n2)cc1`, the figures for the IC50 (in [16]; in [17]; against Acetylcholinesterase [18]) were 750 nM, more than 50 µM and 2.19 µM, respectively. For the compound `C#CCCCOc1ccc(-c2cc(-c3ccc(OCCN4CCOCC4)cc3)nc(-c3ccccc3)n2)cc1`, the IC50 in [16] was found to be 740 nM; in [17] it was 8.6 µM; at Acetylcholinesterase [18] it was 17.5 µM. For the compound `CC(c1nc2c(cnn2C2CCCC2)c(=O)[nH]1)N1CC(Cc2ccc(C(=O)Nc3ccccc3N)cc2)C1` (stereo not drawn), the IC50 in [5] is 57 nM; against Histone deacetylase 1, 99 nM; on Histone deacetylase 2 it was 545 nM; in [6], more than 10000 nM. On to `CC1(C)CC(=O)c2c(N)nc(Nc3ccccc3)nc2C1`, for which, in experiment [19], half-maximal inhibition (IC50) required 22 nM. The compound `COc1cccc(C2C3=C(CCCC3=O)Oc3nc(C)[nH]c(=O)c32)c1` (stereo not drawn) showed a half-inhibitory concentration (IC50) against Acetylcholinesterase [20] of 6.5 µM. On to `CCN(CC)CCCNC1NC(c2ccccc2)=NC2=C1C/C(C(=O)OC)=C\N(C(C)C)CC2` (stereo not drawn), for which, on Cholinesterase [4], the IC50 came to 105 nM.
